Reference: PubChem BioAssay AID1918944 (Molecular Pharmacology Branch, DTP, NCI, 2023)
pIC50: −log10 of the molar value. Where “and” joins values, the source holds several entries; their conditions need not be identical. Equal entries are not always repeated.

Tested on: 786-0 complex spheroid viability
Assay: Anticancer human tumor 786-0 cell line growth inhibition;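 further: spheroids exposed to agents for seven days before readout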
Details: for viability, T/C: stronger effect = lower value
From the text: Multicellular complex tumor spheroid response to LSD1 Inhibitor Iadademstat in combination with a variety of drugs and investigational agents in selected tumor cell lines
The current study was undertaken to assess response to LSD1 inhibitors in combination with standard-of-care drugs and investigational agents in solid tumor complex spheroid models as well as in the K-562 leukemia. Complex spheroids include a stromal component modeled by human endothelial cells (HUVEC) and fibroblasts modeled by human mesenchymal stem cells (MSCs). The concentration ranges selected for each drug and investigational agent were based upon clinically achievable concentrations if the clinical Cmax of the agent was known.
Compounds. The drugs and investigational agents used in this study are listed on Table 1. All of the agents used, including staurosporine (NSC755774) and gemcitabine (NSC613327), were obtained from the Developmental Therapeutics Program, NCI. FDA-approved anticancer drugs are available from the NCI at http://dtp.nci.nih.gov/branches/dscb/oncology_drugset_explanation.html. Drugs and investigational agents were >95% pure by proton nuclear magnetic resonance (NMR) and liquid chromatography/mass spectrometry (LC/MS). Stock solutions were prepared at 400x in DMSO, stored at -70 degrees C, and diluted in fresh medium prior to their use. The final concentration of DMSO in cell culture wells never exceeded 0.25% (v/v). The FDA-approved anticancer drug set is available from the Developmental Therapeutics Program at https://dtp.cancer.gov/organization/dscb/obtaining/available_plates.htm. All drugs and investigational agents were tested over a range starting from a high concentration at or near the clinical Cmax and decreasing in half-log increments. If the clinical Cmax for an agent had not been determined, the highest concentration tested was 10 microM.
Cell Lines. The patient-derived cancer cell (PDC) lines: 292921-168-R-J2-PDC, K24384-001-R-PDC, and 521955-158-R2-J5-PDC pancreatic carcinomas, 556581-035-R-J1 ovarian carcinoma, 324938-238-R-J1-PDC, 855422-203-R-J1-PDC and 883617-216-R-J1-PDC urothelial bladder carcinomas, 743489-274-T-PDC renal cell carcinoma, 138582-R-J1 Merkel cell tumor, K60290-347-R-J1 and K57222-313-R-J1-PDC glioblastomas, 653999-131-R-J2-PDC, LG0703-F948-PDC, and 349418-098-R-PDC non-small cell lung carcinomas, 885512-296-R-J2-PDC, 171881-019-R-J1-PDC breast carcinomas and 186277-243-T-J2-PDC and 233499-124-R-J2-PDC colon carcinomas were obtained from the NCI Patient-Derived Models Repository (PDMR, https://pdmr.cancer.gov). The established cell lines NCI/ADR-RES (RRID:CVCL_14520 and OVCAR-5 (RRID:CVCL_1628) ovarian carcinomas, 786-O (RRID:CVCL_1051) and A498 (RRID:CVCL_A498) renal cell carcinoma, NCI-H211 (ATCC, cat. CRL-5824; RRID:CVCL_1529), NCI-H196 (ATCC, cat. CRL-5823, RRID:CVCL_1509), SW 1271 (ATCC, cat. CRL-2177, RRID:CVCL_1716) and NCI-H1876 (ATCC, cat. CRL-5902, RRID:CVCL_1503) small cell lung carcinomas, MDA-MB-231 (RRID:CVCL_0062) and MDA-MB-468 (RRID:CVCL_0419)breast carcinomas (10-12). Pooled donor human umbilical vein endothelial cells (HUVEC, Lonza, cat. CC-2519) and human mesenchymal stem cells (hMSC, Lonza, cat. PT-2501) were purchased from Lonza (Walkersville, MD).
Cell Culture. All cells were maintained in an incubator at 37 degrees C and 5% CO2 with 95% humidity. The PDC lines were cultured according to standard operating procedures established by the NCI PDMR (https://pdmr.cancer.gov). Briefly all PDCs were thawed and cultured in Matrigel-coated flasks prepared with a working solution of 1X Ham's F-12 nutrient mix, without supplementation (Invitrogen, Waltham, MA, cat. 11765054), 100 U/mL penicillin-streptomycin (Invitrogen, cat. 15140122), and 2.5% Matrigel (Corning Inc., Corning, NY, cat. 354248) for the first three passages. […]

[1] = curve of first compound, second compound 0.1 µM
[2] = curve of first compound, second compound 0.316 µM
[3] = curve of first compound, second compound 1 µM
[4] = curve of first compound, second compound 3.16 µM
[5] = curve of first compound, second compound 10 µM

`O=C(c1cc(Cc2n[nH]c(=O)c3ccccc23)ccc1F)N1CCN(C(=O)C2CC2)CC1` + NC1CC1c1ccc(-c2cccc(O)c2)cc1 showed a pIC50 [1] of under 5.00, a pIC50 [2] of under 5.00 and a pIC50 [3] of under 5.00. For the same compound, the pIC50 [4] was under 5.00, the pIC50 [5] was under 5.00 and the viability, T/C (second compound 0.1 µM, first compound 0.0316 µM) was 111%. For the same compound, the viability, T/C (second compound 0.1 µM, first compound 0.1 µM) was 119%, the viability, T/C (second compound 0.1 µM, first compound 0.316 µM) was 107% and the viability, T/C (second compound 0.1 µM, first compound 1 µM) was 105%. The viability, T/C (second compound 0.1 µM, first compound 3.16 µM) was 97.6%, the viability, T/C (second compound 0.1 µM, first compound 10 µM) was 80.8% and the viability, T/C (second compound 0.316 µM, first compound 0.0316 µM) was 112%. The viability, T/C (second compound 0.316 µM, first compound 0.1 µM) was 112%, the viability, T/C (second compound 0.316 µM, first compound 0.316 µM) was 112% and the viability, T/C (second compound 0.316 µM, first compound 1 µM) was 109%. The viability, T/C (second compound 0.316 µM, first compound 3.16 µM) was 98.8%, the viability, T/C (second compound 0.316 µM, first compound 10 µM) was 81.1% and the viability, T/C (second compound 1 µM, first compound 0.0316 µM) was 111%. It also gave a viability, T/C (second compound 1 µM, first compound 0.1 µM) of 110%, a viability, T/C (second compound 1 µM, first compound 0.316 µM) of 113% and a viability, T/C (second compound 1 µM, first compound 1 µM) of 108%. For the same compound, the viability, T/C (second compound 1 µM, first compound 3.16 µM) was 93.3%, the viability, T/C (second compound 1 µM, first compound 10 µM) was 78.6% and the viability, T/C (second compound 3.16 µM, first compound 0.0316 µM) was 103%. It also gave a viability, T/C (second compound 3.16 µM, first compound 0.1 µM) of 105%, a viability, T/C (second compound 3.16 µM, first compound 0.316 µM) of 103% and a viability, T/C (second compound 3.16 µM, first compound 1 µM) of 97.5%. The viability, T/C (second compound 3.16 µM, first compound 3.16 µM) was 85.9%, the viability, T/C (second compound 3.16 µM, first compound 10 µM) was 68.4% and the viability, T/C (second compound 10 µM, first compound 0.0316 µM) was 97.3%. For the same compound, the viability, T/C (second compound 10 µM, first compound 0.1 µM) was 98.8%, the viability, T/C (second compound 10 µM, first compound 0.316 µM) was 89.3% and the viability, T/C (second compound 10 µM, first compound 1 µM) was 90.7%. The viability, T/C (second compound 10 µM, first compound 3.16 µM) was 72.8% and the viability, T/C (second compound 10 µM, first compound 10 µM) was 52.9%.
`COc1cc(C2c3cc4c(cc3C(OC3OC5COC(C)OC5C(O)C3O)C3COC(=O)C23)OCO4)cc(OC)c1O` (configuration not stated) + NC1CCC(NC2CC2c2ccccc2)CC1 gave a pIC50 [1] of 6.69, a pIC50 [2] of 6.67 and a pIC50 [3] of 6.70. For the same compound, the pIC50 [4] was 6.83, the pIC50 [5] was 6.94 and the viability, T/C (second compound 0.1 µM, first compound 0.00949 µM) was 115%. It also gave a viability, T/C (second compound 0.1 µM, first compound 0.03 µM) of 105%, a viability, T/C (second compound 0.1 µM, first compound 0.0949 µM) of 61.1% and a viability, T/C (second compound 0.1 µM, first compound 0.3 µM) of 44.3%. For the same compound, the viability, T/C (second compound 0.1 µM, first compound 0.949 µM) was 22%, the viability, T/C (second compound 0.1 µM, first compound 3 µM) was 9.16% and the viability, T/C (second compound 0.316 µM, first compound 0.00949 µM) was 122%. For the same compound, the viability, T/C (second compound 0.316 µM, first compound 0.03 µM) was 119%, the viability, T/C (second compound 0.316 µM, first compound 0.0949 µM) was 65.7% and the viability, T/C (second compound 0.316 µM, first compound 0.3 µM) was 45.8%. For the same compound, the viability, T/C (second compound 0.316 µM, first compound 0.949 µM) was 19.4%, the viability, T/C (second compound 0.316 µM, first compound 3 µM) was 8.96% and the viability, T/C (second compound 1 µM, first compound 0.00949 µM) was 118%. For the same compound, the viability, T/C (second compound 1 µM, first compound 0.03 µM) was 110%, the viability, T/C (second compound 1 µM, first compound 0.0949 µM) was 66.4% and the viability, T/C (second compound 1 µM, first compound 0.3 µM) was 40.7%. For the same compound, the viability, T/C (second compound 1 µM, first compound 0.949 µM) was 18.8%, the viability, T/C (second compound 1 µM, first compound 3 µM) was 8.18% and the viability, T/C (second compound 3.16 µM, first compound 0.00949 µM) was 107%. For the same compound, the viability, T/C (second compound 3.16 µM, first compound 0.03 µM) was 104%, the viability, T/C (second compound 3.16 µM, first compound 0.0949 µM) was 56.2% and the viability, T/C (second compound 3.16 µM, first compound 0.3 µM) was 34.4%. For the same compound, the viability, T/C (second compound 3.16 µM, first compound 0.949 µM) was 17.1%, the viability, T/C (second compound 3.16 µM, first compound 3 µM) was 7.91% and the viability, T/C (second compound 10 µM, first compound 0.00949 µM) was 81.6%. The viability, T/C (second compound 10 µM, first compound 0.03 µM) was 79.6%, the viability, T/C (second compound 10 µM, first compound 0.0949 µM) was 48.1% and the viability, T/C (second compound 10 µM, first compound 0.3 µM) was 33.2%. It also gave a viability, T/C (second compound 10 µM, first compound 0.949 µM) of 16.4% and a viability, T/C (second compound 10 µM, first compound 3 µM) of 4.68%.
For `CC(C)CC(NC(=O)C(Cc1ccccc1)NC(=O)c1cnccn1)B(O)O` (configuration not stated), the viability, T/C (compound 0.000316 µM) was 100% and 106%, the viability, T/C (compound 0.001 µM) was 107% and 108% and the viability, T/C (compound 0.00316 µM) was 32.1% and 53.2%. For the same compound, the viability, T/C (compound 0.01 µM) was 2.29% and 6.77%, the viability, T/C (compound 0.0316 µM) was 0.17% and 1.21% and the viability, T/C (compound 0.1 µM) was 0.2% and 0.37%. For the same compound, the pIC50 (curve of compound) was 8.62 and 8.46.
